The record followed here is patent US20240417405A1, “Substituted Spiro Derivatives” (Janssen Pharmaceutica NV, priority 2021, published 2024).

In general, IC50 refers to the concentration at which inhibition is half-maximal.

In assay [1] the target is T1, menin/MLL (terbium chelate-labeled menin, FITC-MBM1 peptide) (Homo sapiens, UniProt O00255, T541A).
T1 construct: Menin (a.a 1-610-6xhis tag)
T1 sequence (O00255 with tags, fused parts or gaps T541A): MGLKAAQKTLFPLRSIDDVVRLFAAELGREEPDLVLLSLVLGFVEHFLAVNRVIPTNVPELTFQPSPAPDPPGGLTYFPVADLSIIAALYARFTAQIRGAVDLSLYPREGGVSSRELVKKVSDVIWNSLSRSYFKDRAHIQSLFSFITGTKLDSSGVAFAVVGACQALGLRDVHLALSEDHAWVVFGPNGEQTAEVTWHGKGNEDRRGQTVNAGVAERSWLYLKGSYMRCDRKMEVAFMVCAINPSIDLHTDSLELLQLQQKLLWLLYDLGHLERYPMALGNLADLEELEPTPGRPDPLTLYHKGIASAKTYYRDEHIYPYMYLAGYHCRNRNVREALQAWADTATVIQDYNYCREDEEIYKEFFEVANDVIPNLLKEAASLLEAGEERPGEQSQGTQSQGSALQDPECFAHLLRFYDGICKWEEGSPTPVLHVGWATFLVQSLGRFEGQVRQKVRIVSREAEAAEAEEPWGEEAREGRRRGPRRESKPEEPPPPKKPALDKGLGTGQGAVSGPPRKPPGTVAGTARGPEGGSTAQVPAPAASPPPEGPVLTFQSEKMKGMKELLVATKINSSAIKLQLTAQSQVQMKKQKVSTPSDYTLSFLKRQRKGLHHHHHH
As to the kind of experiment: Menin/MLL homogenous time-resolved fluorescence (HTRF) assay. The note with it: 30 min incubation. The format is binding. The gist of the method:
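Displacement of FITC-labeled MBM1 peptide (75 nM) from terbium-labeled menin 1-610 (200 pM) measured by HTRF emission ratio. Eleven four-fold dilutions, typically from 10 μM, normalised to saturating-competitor and no-compound controls; IC50 from four-parameter logistic.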
A general note: Time-resolved FRET reads energy transfer from a long-lived donor to a nearby acceptor.

The test system of another assay is MOLM14 cells. As to the kind of experiment: Proliferation assay, spheroid-like growth, MOLM14 (MLL-AF9 rearranged). The following applies: Homo sapiens, MOLM-14, 192 h, 8 days, confluence as measure of spheroid size, read-out: spheroid assay_OneTime MOLM14 IC50. It counts as cell-based, human. Summed up:
(§1)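 Read-out is spheroid confluence from live-cell images taken on day 8, scaled between DMSO-treated wells (0% cytotoxicity) and a low control such as 1 μM staurosporin. Cells were exposed to compound for 8 days in low-attachment plates; KO-52 served as the MLL-wildtype counterscreen.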

In a further assay the test system is KO-52 cells. Put plainly: Proliferation assay, spheroid-like growth, KO-52 (MLL wildtype control cell line). The following applies: Homo sapiens, 192 h, KO-52 control cells, 8 days, confluence as measure of spheroid size; read-out: spheroid assay_OneTime KO-52 IC50. The format is cell-based, human. The gist of the method:
as §1

Regarding `CC(C)[C@H]([C@H]1C[C@@H](N2CCC3(CCO3)CC2)C1)N1CC2(CCN(c3ncnnc3Oc3ccc(F)cc3-c3nnccc3C3CC3)C2)C1` (single isomer, unassigned) [Compound 252], the half-maximal inhibitory concentration (IC50) in assay [1] was 12.7 nM; in the assay with MOLM14 cells, 270 nM; in the assay with KO-52 cells it was above 15 µM.

In the case of `CC(C)[C@@H]([C@H]1C[C@@H](N2CCC3(CC2)COC3)C1)N1CC2(CCN(c3ncnnc3Oc3ccc(F)cc3-c3nnccc3C3CC3)C2)C1` (single isomer, unassigned) [Compound 253], the half-inhibitory concentration (IC50) in assay [1] turned out to be 0.1 nM; in the assay on MOLM14 cells, 10 nM; in the assay with KO-52 cells, 1.62 µM.

In the case of `CC(C)[C@@H]([C@H]1C[C@@H](N2CCC3(COC3)C2)C1)N1CC2(CCN(c3ncnnc3Oc3ccc(F)cc3-c3nnccc3C3CC3)C2)C1` (single isomer, unassigned) [Compound 254], the half-maximal inhibitory concentration (IC50) in assay [1] is 0.1 nM; in the assay with MOLM14 cells it was 16 nM; with KO-52 cells, above 15 µM.

With `CC(C)[C@H]([C@H]1C[C@@H](N2CCC3(COC3)C2)C1)N1CC2(CCN(c3ncnnc3Oc3ccc(F)cc3-c3nnccc3C3CC3)C2)C1` (single isomer, unassigned) [Compound 255], the concentration for half-maximal inhibition (IC50) in assay [1] was 4.7 nM; in the assay on MOLM14 cells it was 920 nM; in the assay with KO-52 cells it was above 15 µM.

For `CO[C@H]1CCCN([C@H]2C[C@@H]([C@H](C(C)C)N3CC4(CCN(c5ncnnc5Oc5ccc(F)cc5-c5nnccc5C5CC5)C4)C3)C2)C1` (single isomer, unassigned) [Compound 256], the figures for the 50% inhibitory concentration (IC50) (in assay [1]; with MOLM14 cells; with KO-52 cells) were 0.2 nM, 5 nM and above 15 µM, respectively.

`CO[C@@H]1CCN([C@H]2C[C@@H]([C@H](C(C)C)N3CC4(CCN(c5ncnnc5Oc5ccc(F)cc5-c5nnccc5C5CC5)C4)C3)C2)C1` (single isomer, unassigned) [Compound 257]: the figures for the IC50 (in assay [1]; in the assay with MOLM14 cells; in the assay with KO-52 cells) were 0.1 nM, 6 nM and above 15 µM, respectively.

In the case of `CC(C)[C@@H]([C@H]1C[C@@H](N2C[C@H]3COC[C@H]3C2)C1)N1CC2(CCN(c3ncnnc3Oc3ccc(F)cc3-c3nnccc3C3CC3)C2)C1` (single isomer, unassigned) [Compound 258], the half-inhibitory concentration (IC50) in assay [1] was determined as 0.1 nM; in the assay with MOLM14 cells, 4 nM; with KO-52 cells it was 0.49 µM.

For the molecule `CC(C)[C@@H]([C@H]1C[C@H](N2C[C@H]3COC[C@H]3C2)C1)N1CC2(CCN(c3ncnnc3Oc3ccc(F)cc3-c3nnccc3C3CC3)C2)C1` (single isomer, unassigned) [Compound 259], the IC50 in assay [1] stood at 0.4 nM; in the assay with MOLM14 cells, 94 nM; in the assay with KO-52 cells it was 4.76 µM.

In the case of `COC1CN([C@H]2C[C@@H]([C@H](C(C)C)N3CC4(CCN(c5ncnnc5Oc5ccc(F)cc5-c5nnccc5C5CC5)C4)C3)C2)C1` (single isomer, unassigned) [Compound 260], the IC50 was determined as 0.1 nM in assay [1], 6 nM with MOLM14 cells and 3.25 µM in the assay on KO-52 cells.

As for `CC(C)[C@@H]([C@H]1C[C@@H](N(C)C)C1)N1CC2(CCN(c3ncnnc3Oc3ccc(F)cc3-c3nnccc3C3CC3)C2)C1` (single isomer, unassigned) [Compound 261a], the half-maximal inhibitory concentration (IC50) is 0.16 nM in assay [1], 19 nM in the assay on MOLM14 cells and above 15 µM in the assay with KO-52 cells.

Consider `CC(C)[C@@H]([C@H]1C[C@H](N(C)C)C1)N1CC2(CCN(c3ncnnc3Oc3ccc(F)cc3-c3nnccc3C3CC3)C2)C1` (single isomer, unassigned) [Compound 261b], for which the values for the IC50 (in assay [1]; in the assay with MOLM14 cells; in the assay on KO-52 cells) were 0.3 nM, 83 nM and 3.07 µM, respectively.

As for `CC(C)[C@@H]([C@H]1C[C@@H](N2CC[C@@H](F)C2)C1)N1CC2(CCN(c3ncnnc3Oc3ccc(F)cc3-c3nnccc3C3CC3)C2)C1` (single isomer, unassigned) [Compound 262], the figures for the half-inhibitory concentration (IC50) (in assay [1]; in the assay on MOLM14 cells; in the assay on KO-52 cells) were 0.1 nM, 5 nM and 1.28 µM, respectively.

Consider `COC1(C)CN([C@H]2C[C@H]([C@H](C(C)C)N3CC4(CCN(c5ncnnc5Oc5ccc(F)cc5-c5nnccc5C5CC5)C4)C3)C2)C1` (single isomer, unassigned) [Compound 264], for which the 50% inhibitory concentration (IC50) was determined as 0.8 nM in assay [1], 170 nM in the assay on MOLM14 cells and 14.4 µM in the assay with KO-52 cells.

Regarding `CC(C)[C@H]([C@H]1C[C@@H](N2CCC3(CCCO3)C2)C1)N1CC2(CCN(c3ncnnc3Oc3ccc(F)cc3-c3nnccc3C3CC3)C2)C1` (single isomer, unassigned) [Compound 271], the results for the IC50 (in assay [1]; with MOLM14 cells; with KO-52 cells) were 2.4 nM, 260 nM and above 15 µM, respectively.

`CC(C)[C@@H]([C@H]1C[C@H](NC2CC2)C1)N1CC2(CCN(c3ncnnc3Oc3ccc(F)cc3-c3nnccc3C3CC3)C2)C1` (single isomer, unassigned) [Compound 273]: the IC50 in assay [1] was 0.3 nM; with MOLM14 cells, 110 nM; with KO-52 cells it was above 15 µM.

Take `CC(C)[C@@H]([C@H]1C[C@@H](N2CC(OC3CC3)C2)C1)N1CC2(CCN(c3ncnnc3Oc3ccc(F)cc3-c3nnccc3C3CC3)C2)C1` (single isomer, unassigned) [Compound 274]: the IC50 was determined as 0.1 nM in assay [1], 2 nM in the assay on MOLM14 cells and 3.56 µM in the assay on KO-52 cells.

In the case of `CC(C)[C@@H]([C@H]1C[C@H](N2C[C@H]3COC[C@H]3C2)C1)N1CC2(CCN(c3ncnnc3Oc3ccc(F)cc3-c3cnncc3C3CC3)C2)C1` (single isomer, unassigned) [Compound 279], the IC50 amounted to 0.1 nM in assay [1], 20 nM with MOLM14 cells and 5.99 µM in the assay with KO-52 cells.

For `CC(C)[C@H]([C@H]1C[C@H](N2CCC3(CCO3)CC2)C1)N1CC2(CCN(c3ncnnc3Oc3ccc(F)cc3-c3cnncc3C3CC3)C2)C1` (single isomer, unassigned) [Compound 280b], the concentration for half-maximal inhibition (IC50) was 2.4 nM in assay [1], 740 nM with MOLM14 cells and above 15 µM in the assay on KO-52 cells.

On to `CO[C@H]1[C@@H]2CN([C@H]3C[C@H]([C@H](C(C)C)N4CC5(CCN(c6ncnnc6Oc6ccc(F)cc6-c6cnncc6C6CC6)C5)C4)C3)C[C@@H]21` (single isomer, unassigned) [Compound 282b], for which the figures for the IC50 (in assay [1]; in the assay on MOLM14 cells; in the assay with KO-52 cells) were 0.5 nM, 380 nM and 11.5 µM, respectively.

`CC(C)[C@@H]([C@H]1C[C@@H](N2CC[C@H](S(C)(=O)=O)C2)C1)N1CC2(CCN(c3ncnnc3Oc3ccc(F)cc3-c3ncccc3C3CC3)C2)C1` (single isomer, unassigned) [Compound 285]: the values for the IC50 (in assay [1]; in the assay with MOLM14 cells; in the assay with KO-52 cells) were 23.3 nM, above 940 nM and above 15 µM, respectively.

`CC(C)[C@H]([C@H]1C[C@@H](N2CC[C@H](S(C)(=O)=O)C2)C1)N1CC2(CCN(c3ncnnc3Oc3ccc(F)cc3-c3ncccc3C3CC3)C2)C1` (single isomer, unassigned) [Compound 286]: the IC50 is 0.3 nM in assay [1], 120 nM with MOLM14 cells and 12.2 µM in the assay on KO-52 cells.

Take `CC(C)[C@@H]([C@H]1C[C@@H](N2CC[C@@H](S(C)(=O)=O)C2)C1)N1CC2(CCN(c3ncnnc3Oc3ccc(F)cc3-c3ncccc3C3CC3)C2)C1` (single isomer, unassigned) [Compound 287]: the IC50 in assay [1] is 70.3 nM; in the assay on MOLM14 cells it was above 940 nM; with KO-52 cells, above 15 µM.

`CC(C)[C@H]([C@H]1C[C@@H](N2C[C@H]3C[C@@H]2CO3)C1)N1CC2(CCN(c3ncnnc3Oc3ccc(F)cc3-c3ncccc3C3CC3)C2)C1` (single isomer, unassigned) [Compound 288]: the IC50 amounted to 0.1 nM in assay [1], 17 nM in the assay on MOLM14 cells and 12.1 µM in the assay on KO-52 cells.

For the molecule `CC(C)[C@@H]([C@H]1C[C@@H](N2CCC3(COC3)C2)C1)N1CC2(CCN(c3ncnnc3Oc3ccc(F)cc3-c3cccnc3C3CC3)C2)C1` (single isomer, unassigned) [Compound 289], the half-maximal inhibitory concentration (IC50) was 0.1 nM in assay [1], 2 nM in the assay with MOLM14 cells and 0.31 µM with KO-52 cells.

On to `CC(C)[C@@H]([C@H]1C[C@@H](N2C[C@H]3C[C@@H]2CO3)C1)N1CC2(CCN(c3ncnnc3Oc3ccc(F)cc3-c3cccnc3C3CC3)C2)C1` (single isomer, unassigned) [Compound 290], for which the half-maximal inhibitory concentration (IC50) is 0.1 nM in assay [1], 5 nM with MOLM14 cells and 1.08 µM in the assay with KO-52 cells.
